Reference: patent US20250032623A1, “HETEROBIFUNCTIONAL COMPOUNDS AND THEIR USE IN TREATING DISEASE” (HALDA THERAPEUTICS OPCO, INC., priority 2021, published 2025)
Like-named read-outs stand apart in the source and are kept apart here.

How the values were obtained:
HeLa cells = experiment: Cellular growth inhibition assay (CellTiter-Glo), HeLa cells; format: cell-based; conditions: three days compound treatment, CellTiter-Glo 2.0, read-out: CTG HELA GI50
In short: (§1)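 HEK293 or HeLa cells seeded at 500 cells/well in DMEM with 10% FBS, treated after 24 h with titrated compound for three days at 37 °C, 5% CO2. CellTiter-Glo 2.0 luminescence read on Day 0 and Day 3, normalized to DMSO, four-parameter fit giving GI50.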

EGFR = biological target: T1, EGFR (Homo sapiens, UniProt P00533); experiment: KdELECT binding assay, EGFR
T1 construct: purchased
T1 sequence (P00533 25-1210): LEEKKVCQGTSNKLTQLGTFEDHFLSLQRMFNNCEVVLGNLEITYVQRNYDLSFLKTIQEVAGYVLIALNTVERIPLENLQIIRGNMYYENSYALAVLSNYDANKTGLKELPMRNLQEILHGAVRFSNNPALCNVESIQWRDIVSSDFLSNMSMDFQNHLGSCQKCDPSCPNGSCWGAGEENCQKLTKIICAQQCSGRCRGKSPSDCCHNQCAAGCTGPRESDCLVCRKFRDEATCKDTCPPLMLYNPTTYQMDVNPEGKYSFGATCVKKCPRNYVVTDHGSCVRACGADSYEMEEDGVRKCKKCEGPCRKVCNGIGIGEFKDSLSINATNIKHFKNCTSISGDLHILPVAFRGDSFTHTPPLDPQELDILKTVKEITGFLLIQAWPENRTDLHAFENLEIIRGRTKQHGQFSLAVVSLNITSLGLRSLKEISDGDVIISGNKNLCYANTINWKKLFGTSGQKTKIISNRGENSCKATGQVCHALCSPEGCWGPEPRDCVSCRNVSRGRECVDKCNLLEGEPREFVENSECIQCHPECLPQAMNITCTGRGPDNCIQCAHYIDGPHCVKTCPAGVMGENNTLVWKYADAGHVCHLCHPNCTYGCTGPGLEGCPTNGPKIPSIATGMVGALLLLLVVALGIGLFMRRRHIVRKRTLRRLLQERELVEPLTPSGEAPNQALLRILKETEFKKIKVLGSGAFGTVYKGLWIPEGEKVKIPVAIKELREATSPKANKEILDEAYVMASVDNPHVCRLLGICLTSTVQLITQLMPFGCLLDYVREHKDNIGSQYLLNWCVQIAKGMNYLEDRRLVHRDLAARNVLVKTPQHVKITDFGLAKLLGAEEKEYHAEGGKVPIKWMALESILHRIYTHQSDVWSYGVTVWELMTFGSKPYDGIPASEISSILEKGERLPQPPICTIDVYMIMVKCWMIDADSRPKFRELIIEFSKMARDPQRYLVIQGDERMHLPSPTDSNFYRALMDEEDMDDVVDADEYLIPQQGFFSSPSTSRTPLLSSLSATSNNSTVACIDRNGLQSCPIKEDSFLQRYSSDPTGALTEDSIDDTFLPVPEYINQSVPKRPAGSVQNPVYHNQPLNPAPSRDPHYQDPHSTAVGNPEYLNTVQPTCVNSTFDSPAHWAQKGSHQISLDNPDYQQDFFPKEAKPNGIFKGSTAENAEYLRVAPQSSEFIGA
In short: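 Competition binding: DNA- or T7 phage-tagged EGFR was incubated 1 h at room temperature with immobilized ligand beads and an 11-point 3-fold compound series (0.9% DMSO final). Bead-bound kinase was eluted and quantified by qPCR to derive Kd.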

[1] = biological target: T2, EGFR T790M, L858R (amino acids 669-1011 Accession Number NP_005219.2) (Homo sapiens, UniProt P00533, L858R/T790M); experiment: KdELECT binding assay (Eurofins Discovery), EGFR T790M, L858R; conditions: read-out: EGFR DM Kd
T2 construct: purchased Eurofins Discovery; host or cells: mammalian cells (HEK-293)
T2 sequence (P00533 669-1011 T790M/L858R): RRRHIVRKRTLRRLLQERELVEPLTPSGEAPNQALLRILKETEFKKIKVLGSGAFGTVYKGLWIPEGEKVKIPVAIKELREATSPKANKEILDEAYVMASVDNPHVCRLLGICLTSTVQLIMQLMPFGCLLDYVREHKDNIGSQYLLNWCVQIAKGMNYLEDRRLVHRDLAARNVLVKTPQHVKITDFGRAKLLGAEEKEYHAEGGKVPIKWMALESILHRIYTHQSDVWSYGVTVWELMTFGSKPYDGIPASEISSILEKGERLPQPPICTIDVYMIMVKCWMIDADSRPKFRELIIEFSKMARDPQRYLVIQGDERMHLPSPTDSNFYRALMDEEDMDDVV
In short: (§2)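 Competition binding: WT kinase as T7 phage fusion from E. coli, T790M/L858R produced in HEK-293 and DNA-tagged, incubated 1 h at room temperature with immobilized ligand beads and compound (11-point 3-fold series, 0.9% DMSO). Bead-bound kinase eluted and quantified by qPCR to derive Kd.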

HEK293 cells = experiment: Cellular growth inhibition assay (CellTiter-Glo), HEK293 cells; format: cell-based; conditions: three days compound treatment, CellTiter-Glo 2.0, read-out: CTG HEK293 GI50
In short: as §1

[2] = biological target: T3, EGFR WT (amino acids 669-1011, Accession Number NP_005219.2) (Homo sapiens, UniProt P00533); experiment: KdELECT binding assay (Eurofins Discovery), EGFR WT
T3 construct: purchased Eurofins Discovery; host or cells: bacteria (E. coli, BL21-derived, T7 phage)
T3 sequence (P00533 669-1011): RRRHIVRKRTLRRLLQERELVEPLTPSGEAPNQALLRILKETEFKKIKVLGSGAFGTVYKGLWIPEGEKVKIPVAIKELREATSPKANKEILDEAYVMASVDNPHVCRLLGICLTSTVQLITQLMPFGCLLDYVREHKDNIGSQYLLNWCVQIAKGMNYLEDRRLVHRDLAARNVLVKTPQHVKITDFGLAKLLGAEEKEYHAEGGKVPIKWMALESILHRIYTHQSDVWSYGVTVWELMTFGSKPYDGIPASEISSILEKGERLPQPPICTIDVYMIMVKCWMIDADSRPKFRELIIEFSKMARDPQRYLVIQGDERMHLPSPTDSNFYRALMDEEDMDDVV
In short: as §2

SMILES	GI50 (HeLa cells; Homo sapiens, 72 h)	Kd (EGFR)	Kd [1]	Kd [2]	GI50 (HeLa cells)	GI50 (HEK293 cells; Homo sapiens, 72 h)	GI50 (HEK293 cells)
C=CC(=O)N[C@@H]1CN(c2nc(Nc3cn(CCOCCON(C)C(=O)N4N=C(c5cc(F)ccc5F)S[C@@]4(CCCN)c4ccccc4)nc3OC)c3ncn(C)c3n2)C[C@H]1F [Compound I-134, (2S)-2-(3-aminopropyl)-5-(2,5-difluorophenyl)-N—[2-[2-[4-[[2-[(3R,4R)-3-fluoro-4-(prop-2-enoylamino)pyrrolidin-1-yl]-9-methyl-purin-6-yl]amino]-3-methoxy-pyrazol-1-yl]ethoxy]ethoxy]-N-methyl-2-phenyl-1,3,4-thiadiazole-3-carboxamide]	1.5 to 5 µM	< 0.05 µM	< 0.05 µM	< 0.05 µM	–	> 5 µM	–
C=CC(=O)N[C@@H]1CN(c2nc(Nc3cn(CCCON(C)C(=O)N4N=C(c5cc(F)ccc5F)S[C@@]4(CCCN)c4ccccc4)nc3OC)c3ncn(C)c3n2)C[C@H]1F [Compound I-135, (2S)-2-(3-aminopropyl)-5-(2,5-difluorophenyl)-N-[3-[4-[[2-[(3R,4R)-3-fluoro-4-(prop-2-enoylamino)pyrrolidin-1-yl]-9-methyl-purin-6-yl]amino]-3-methoxy-pyrazol-1-yl]propoxy]-N-methyl-2-phenyl-1,3,4-thiadiazole-3-carboxamide]	> 5 µM	< 0.05 µM	< 0.05 µM	< 0.05 µM	–	> 5 µM	–
C=CC(=O)N[C@@H]1CN(c2nc(Nc3cn(CCOc4ccc(CNc5cc(N6CCCC[C@H]6CCO)nc6c(CC)cnn56)cn4)nc3OC)c3ncn(C)c3n2)C[C@H]1F [Compound I-139, N-[(3R,4R)-1-[6-[[1-[2-[[5-1[[[3-ethyl-5-[(2S)-2-(2-hydroxyethyl)-1-piperidyl]pyrazolo[1,5-a]pyrimidin-7-yl]amino]methyl]-2-pyridyl]oxy]ethyl]-3-methoxy-pyrazol-4-yl]amino]-9-methyl-purin-2-yl]-4-fluoro-pyrrolidin-3-yl]prop-2-enamide]	< 0.5 µM	0.05 to 0.5 µM	< 0.05 µM	0.05 to 0.5 µM	–	< 0.5 µM	–
C=CC(=O)N[C@@H]1CN(c2nc(Nc3cn(CCOCCOCCOCCOCCOCCOCCOc4ccc(CNc5cc(N6CCCC[C@@H]6CCO)nc6c(CC)cnn56)cn4)nc3OC)c3ncn(C)c3n2)C[C@H]1F [Compound I-140, N—[(3R,4R)-1-[6-[[1-[2-[2-[2-[2-[2-[2-[2-[[5-111[[[3-ethyl-5-[(2R)-2-(2-hydroxyethyl)-1-piperidyl]pyrazolo[1,5-a]pyrimidin-7-yl]amino]methyl]-2-pyridyl]oxy]ethoxy]ethoxy]ethoxy]ethoxy]ethoxy]ethoxy]ethyl]-3-methoxy-pyrazol-4-yl]amino]-9-methyl-purin-2-yl]-4-fluoro-pyrrolidin-3-yl]prop-2-enamide]	–	0.05 to 0.5 µM	< 0.05 µM	0.05 to 0.5 µM	< 0.5 µM	–	< 0.5 µM
C=CC(=O)Nc1cc(Nc2nccc(-c3cn(C)c4ccccc34)n2)c(OC)cc1N(C)CCN(C)CCCN1CCN(CCCOc2ccc(CNc3cc(N4CCCC[C@H]4CCO)nc4c(CC)cnn34)cn2)CC1 [Compound I-149, N-[2-[2-[3-[4-[3-[[5-[[[3-ethyl-5-[(2S)-2-(2-hydroxyethyl)-1-piperidyl]pyrazolo[1,5-a]pyrimidin-7-yl]amino]methyl]-2-pyridyl]oxy]propyl]piperazin-1-yl]propyl-methyl-amino]ethyl-methyl-amino]-4-methoxy-5-[[4-(1-methylindol-3-yl)pyrimidin-2-yl]amino]phenyl]prop-2-enamide]	< 0.5 µM	0.5 to 2.5 µM	< 0.05 µM	0.5 to 2.5 µM	–	< 0.5 µM	–
C=CC(=O)N[C@@H]1CN(c2nc(Nc3cn(CCCCNS(=O)(=O)c4ccc(Nc5ncc(Br)c(Nc6cccc(F)c6C(N)=O)n5)cc4)nc3OC)c3ncn(C)c3n2)CC1F (stereo partly drawn) [Compound I-150, 2-[[5-bromo-2-[4-[4-[4-[[2-[(4R)-3-fluoro-4-(prop-2-enoylamino)pyrrolidin-1-yl]-9-methyl-purin-6-yl]amino]-3-methoxy-pyrazol-1-yl]butylsulfamoyl]anilino]pyrimidin-4-yl]amino]-6-fluoro-benzamide]	> 5 µM	< 0.05 µM	< 0.05 µM	< 0.05 µM	–	0.5 to 1.5 µM	–

More lines, main results first:

GI50 (HeLa cells; Homo sapiens, 72 h)	Kd (EGFR)	Kd [1]	Kd [2]	GI50 (HeLa cells)	SMILES	GI50 (HEK293 cells; Homo sapiens, 72 h)	GI50 (HEK293 cells)
0.5 to 1.5 µM	0.5 to 2.5 µM	< 0.05 µM	0.5 to 2.5 µM	–	C=CC(=O)N[C@@H]1CN(c2nc(Nc3cn(CCCNC(=O)c4ccc(Nc5ncc6c(n5)N(C5CCCC5)[C@H](CC)C(=O)N6C)c(OC)c4)nc3OC)c3ncn(C)c3n2)C[C@H]1F [Compound I-131, 4-[(8-cyclopentyl-7-ethyl-5-methyl-6-oxo-7H-pteridin-2-yl)amino]-N-[3-[4-[[2-[(3R,4R)-3-fluoro-4-(prop-2-enoylamino)pyrrolidin-1-yl]-9-methyl-purin-6-yl]amino]-3-methoxy-pyrazol-1-yl]propyl]-3-methoxy-benzamide]	0.5 to 1.5 µM	–
< 0.5 µM	0.5 to 2.5 µM	< 0.05 µM	0.5 to 2.5 µM	–	C=CC(=O)Nc1cc(Nc2nccc(-c3cn(C)c4ccccc34)n2)c(OC)cc1N(C)CCN(C)CCOCCOCCOCCOCCOCCOCCOc1ccc(CNc2cc(N3CCCC[C@H]3CCO)nc3c(CC)cnn23)cn1 [Compound I-133]	< 0.5 µM	–
< 0.5 µM	< 0.05 µM	< 0.05 µM	< 0.05 µM	–	C=CC(=O)N[C@@H]1CN(c2nc(Nc3cn(CCCN4CCN(CCCNC(=O)c5ccc(Nc6ncc7c(n6)N(C6CCCC6)[C@H](CC)C(=O)N7C)c(OC)c5)CC4)nc3OC)c3ncn(C)c3n2)C[C@H]1F [Compound I-136, 4-[[(7R)-8-cyclopentyl-7-ethyl-5-methyl-6-oxo-7H-pteridin-2-yl]amino]-N-[3-[4-[3-[4-[[2-[(3R,4R)-3-fluoro-4-(prop-2-enoylamino)pyrrolidin-1-yl]-9-methyl-purin-6-yl]amino]-3-methoxy-pyrazol-1-yl]propyl]piperazin-1-yl]propyl]-3-methoxy-benzamide]	0.5 to 1.5 µM	–
1.5 to 5 µM	< 0.05 µM	< 0.05 µM	< 0.05 µM	–	C=CC(=O)N[C@@H]1CN(c2nc(Nc3cn(CCCN4CCN(CCCON(C)C(=O)N5N=C(c6cc(F)ccc6F)S[C@@]5(CCCN)c5ccccc5)CC4)nc3OC)c3ncn(C)c3n2)C[C@H]1F [Compound I-137, (2S)-2-(3-aminopropyl)-5-(2,5-difluorophenyl) —N-[3-[4-[3-[4-[[2-[(3R,4R)-3-fluoro-4-(prop-2-enoylamino)pyrrolidin-1-yl]-9-methyl-purin-6-yl]amino]-3-methoxy-pyrazol-1-yl]propyl]piperazin-1-yl]propoxy]-N-methyl-2-phenyl-1,3,4-thiadiazole-3-carboxamide]	> 5 µM	–
< 0.5 µM	0.05 to 0.5 µM	< 0.05 µM	0.05 to 0.5 µM	–	C=CC(=O)Nc1cc(Nc2nccc(-c3cn(C)c4ccccc34)n2)c(OC)cc1N(C)CCN(C)CCOCCOCCOc1ccc(CNc2cc(N3CCCC[C@H]3CCO)nc3c(CC)cnn23)cn1 [Compound I-141, N-[2-[2-[2-[2-[2-[[5-[[[3-ethyl-5-[(2S)-2-(2-hydroxyethyl)-1-piperidyl]pyrazolo[1,5-a]pyrimidin-7-yl]amino]methyl]-2-pyridyl]oxy]ethoxy]ethoxy]ethyl-methyl-amino]ethyl-methyl-amino]-4-methoxy-5-[[4-(1-methylindol-3-yl)pyrimidin-2-yl]amino]phenyl]prop-2-enamide]	< 0.5 µM	–
< 0.5 µM	0.5 to 2.5 µM	< 0.05 µM	0.5 to 2.5 µM	–	CC[C@@H]1C(=O)N(C)c2cnc(Nc3ccc(C(=O)NCCCN4CCN(CCCN(C)C/C=C/C(=O)N[C@@H]5CN(c6nc(Nc7cn(C)nc7OC)c7ncn(C)c7n6)C[C@H]5F)CC4)cc3OC)nc2N1C1CCCC1 [Compound I-152, 4-[[(7R)-8-cyclopentyl-7-ethyl-5-methyl-6-oxo-7H-pteridin-2-yl]amino]-N-[3-[4-[3-[[(E)-4-[[(3R,4R)-4-fluoro-1-1[6-1[(3-methoxy-1-methyl-pyrazol-4-yl)amino]-9-methyl-purin-2-yl]pyrrolidin-3-yl]amino]-4-oxo-but-2-enyl]-methyl-amino]propyl]piperazin-1-yl]propyl]-3-methoxy-benzamide]	> 5 µM	–
